Patent publication US11214803B2, “Modulators of YAP1 expression” (Ionis Pharmaceuticals, Inc., priority 2019, dated 2022)
Marks after values point to notes of the source that are not given here. Strand notation (5' to 3'): a small letter for the sugar, then the base; units joined by * are phosphorothioate-linked, units joined directly phosphodiester-linked; [ ] holds rarer units or linkages, { } end groups; capitals alone tell only the bases. k = constrained ethyl (cEt); [5mC] = 5-methylcytosine; d = 2'-deoxy (DNA)

Tested on: Yap1 mRNA
Assay: Antisense inhibition of human Yap1 in A-431 cells by cEt gapmers, single dose (Example 2, RTS4814)
Format: cell-based
Outline: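 A-431 cells (5,000/well) received 2,000 nM oligonucleotide by free uptake for about 48 h. Yap1 mRNA was then quantified by RT-qPCR with primer probe set RTS4814, normalized to RIBOGREEN total RNA, and reported as % of untreated control; asterisked values mark oligos inside the amplicon.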

[1] = Table 21, Yap1 mRNA, percent of untreated control, 3-10-3 cEt gapmers targeting SEQ ID NO.: 1 and 2
[2] = Table 24, Yap1 mRNA as percent of untreated control, 3-10-3 cEt gapmers targeting SEQ ID NO.: 1, and 2
[3] = A-431 cells, 5,000 cells per well, free uptake, 2,000 nM modified oligonucleotide, approx. 48 hours, RTS4814, normalized to RIBOGREEN, Table 4, asterisk (*) = targets amplicon region of primer probe set
[4] = Table 5, A-431 cells, 5,000 cells per well, free uptake, 2,000 nM modified oligonucleotide, approx. 48 hours, RTS4814, normalized to RIBOGREEN, Yap1 mRNA relative to untreated control cells
[5] = Table 20, Yap1 mRNA, percent of untreated control, 3-10-3 cEt gapmers targeting SEQ ID NO.: 1 and 2
[6] = Table 23, Yap1 mRNA as percent of untreated control, 3-10-3 cEt gapmers, single dose
[7] = Yap1 mRNA as percent of untreated control, A-431 cells, 3-10-3 cEt gapmers targeting SEQ ID NO.: 1, and 2, Table 31
[8] = Table 22, Yap1 mRNA as percent of untreated control, 3-10-3 cEt gapmers, single dose
[9] = Table 19, A-431 cells, 5,000 cells per well, free uptake, 2,000 nM modified oligonucleotide, approx. 48 hours, RTS4814, normalized to RIBOGREEN, Yap1 mRNA as percent of untreated control
[10] = Table 18, A-431 cells, 5,000 cells per well, free uptake, 2,000 nM modified oligonucleotide, approx. 48 hours, RTS4814, normalized to RIBOGREEN, Yap1 mRNA as percent of untreated control
[11] = Table 33, Yap1 mRNA, percent of untreated control, 3-10-3 cEt gapmers targeting SEQ ID NO.: 1, and 2

Substance: 1076231 (kT*kT*kA*dG*dA*dA*dA*dT*dG*dG*dA*d[5mC]*dT*kG*kG*kG; antisense) [Compound 1076231]
- YAP1 (% UTC) [1]: 16 % UTC

Substance: 1075466 (antisense kT*k[5mC]*k[5mC]*dA*dA*dA*dA*dA*d[5mC]*d[5mC]*dA*dT*d[5mC]*kA*kG*kT) [Compound 1075466]
- YAP1 (% UTC) [2]: 28 % UTC

Substance: 1075730 (kG*kT*kA*dT*dT*dT*dA*dA*dA*dA*dA*dT*dA*kG*k[5mC]*kG; antisense) [compound 1075730]
- YAP1 (% UTC) (Table 32, Yap1 mRNA, percent of untreated control, 3-10-3 cEt gapmers targeting SEQ ID NO.: 1, and 2): 92 % UTC

Substance: 716349 (kA*k[5mC]*kT*dT*dT*dT*dT*d[5mC]*d[5mC]*d[5mC]*dT*d[5mC]*d[5mC]*kA*kA*k[5mC]; antisense) [Compound 716349]
- YAP1 (% UTC) [3]: 78 % UTC

Substance: 716509 (antisense kT*kA*kT*dA*d[5mC]*d[5mC]*d[5mC]*dA*dA*dT*dT*dT*dT*kG*k[5mC]*kA) [Compound 716509]
- YAP1 (% UTC) [4]: 70 % UTC

Substance: 1076070 (kA*kT*kT*dA*dG*dT*dA*dA*dT*dG*d[5mC]*dA*d[5mC]*kA*kG*kG; antisense) [Compound 1076070]
- YAP1 (% UTC) [5]: 6 % UTC

Substance: 1076169 (k[5mC]*kT*kA*d[5mC]*dT*dA*dT*dA*dT*d[5mC]*dT*dT*dT*kG*kG*kG; antisense) [Compound 1076169]
- YAP1 (% UTC) [6]: 10 % UTC

Substance: 1075751 (kG*kA*kG*dG*dA*dA*d[5mC]*dA*dA*dG*dA*dT*d[5mC]*kT*k[5mC]*kA; antisense) [Compound 1075751]
- YAP1 (% UTC) [1]: 72 % UTC

Substance: 1075111 (antisense kT*kA*kG*dG*dA*dA*dT*dA*dT*dG*dG*dG*dT*kA*kG*kT) [Compound 1075111]
- YAP1 (% UTC) [1]: 5 % UTC

Substance: 716494 (kA*kA*kG*dG*dG*d[5mC]*dT*dT*dA*dT*dT*d[5mC]*dT*kA*kG*kA; antisense) [Compound 716494]
- YAP1 (% UTC) [4]: 112 % UTC

Substance: 1076209 (k[5mC]*kA*kT*dT*dA*dG*d[5mC]*dA*d[5mC]*dA*d[5mC]*d[5mC]*dT*kT*kT*kT; antisense) [compound 1076209]
- YAP1 (% UTC) [7]: 12 % UTC

Substance: 1074539 (antisense k[5mC]*kT*kA*dT*d[5mC]*d[5mC]*dA*d[5mC]*dA*dG*dT*dA*dA*kT*kA*kG) [Compound 1074539]
- YAP1 (% UTC) (Table 25, Yap1 mRNA as percent of untreated control, 3-10-3 cEt gapmers targeting SEQ ID NO.: 1, and 2): 62 % UTC

Substance: 1074696 (antisense kG*kT*k[5mC]*d[5mC]*d[5mC]*d[5mC]*d[5mC]*dT*dA*dA*dA*dT*d[5mC]*kT*kT*k[5mC]) [Compound 1074696]
- YAP1 (% UTC) [8]: 38 % UTC

Substance: 1074440 (kG*k[5mC]*kT*dG*dT*dG*dA*d[5mC]*dA*dT*dG*dA*dA*kG*k[5mC]*kA; antisense) [Compound 1074440]
- YAP1 (% UTC) [8]: 38* % UTC

Substance: 1076042 (k[5mC]*kT*kT*dA*dA*dG*d[5mC]*dA*dA*dG*dA*dG*dT*k[5mC]*k[5mC]*kA; antisense) [Compound 1076042]
- YAP1 (% UTC) [2]: 35 % UTC

Substance: 1075593 (k[5mC]*kA*kT*dT*dA*dG*dA*dG*dT*dA*dT*dG*dA*kA*k[5mC]*kT; antisense) [Compound 1075593]
- YAP1 (% UTC) [6]: 99 % UTC

Substance: 1074193 (antisense kG*kG*kT*d[5mC]*d[5mC]*dG*dG*dA*d[5mC]*dG*dG*d[5mC]*dG*kG*kG*k[5mC]) [compound 1074193]
- YAP1 (% UTC) [7]: 74 % UTC

Substance: 1074149 (antisense kG*k[5mC]*k[5mC]*dG*dA*dG*dG*dT*dG*dG*dA*dG*dA*kA*kG*k[5mC]) [Compound 1074149]
- YAP1 (% UTC) [9]: 58 % UTC

Substance: 716467 (k[5mC]*k[5mC]*kG*dT*dA*dT*dG*d[5mC]*d[5mC]*d[5mC]*dA*dG*dA*kG*kG*kG; antisense) [Compound 716467]
- YAP1 (% UTC) [4]: 99 % UTC

Substance: 1076293 (kG*k[5mC]*kT*dT*dA*dT*dT*dA*dT*dT*dG*dA*dG*kT*kT*kA; antisense) [Compound 1076293]
- YAP1 (% UTC) [9]: 3 % UTC

Substance: 1075141 (antisense kT*kA*kT*dA*d[5mC]*dG*dA*dG*dA*dA*dG*dT*dT*kG*kA*kA) [Compound 1075141]
- YAP1 (% UTC) [9]: 54 % UTC

Substance: 1076486 (antisense kG*kA*kA*dA*d[5mC]*dG*dA*dA*dA*d[5mC]*dG*dG*dG*kA*kA*kA) [Compound 1076486]
- YAP1 (% UTC) [5]: 5 % UTC

Substance: 1075140 (antisense k[5mC]*kT*kT*dT*dA*dG*dG*dT*dT*dA*dA*dG*d[5mC]*kA*kA*kT) [Compound 1075140]
- YAP1 (% UTC) [10]: 86 % UTC

Substance: 716348 (kA*k[5mC]*kG*dG*dA*dG*dG*d[5mC]*d[5mC]*dG*dG*dA*d[5mC]*kA*kG*k[5mC]; antisense) [Compound 716348]
- YAP1 (% UTC) (Table 6, A-431 cells, 5,000 cells per well, free uptake, 2,000 nM modified oligonucleotide, approx. 48 hours, RTS4814, normalized to RIBOGREEN, Yap1 mRNA relative to untreated control cells): 107 % UTC

Substance: 716572 (k[5mC]*kA*kG*dT*dA*dA*dG*dA*dA*dG*d[5mC]*d[5mC]*dA*kA*kA*kA; antisense) [Compound 716572]
- YAP1 (% UTC) [4]: 122 % UTC

Substance: 1076457 (antisense kG*kA*kA*d[5mC]*dT*dA*dT*dA*dA*dT*d[5mC]*dT*dT*kA*kT*kA) [Compound 1076457]
- YAP1 (% UTC) [6]: 74 % UTC

Substance: 716539 (antisense kA*kA*kT*dA*dG*dT*dG*d[5mC]*dT*dT*dT*dG*dG*kA*kA*kG) [Compound 716539]
- YAP1 (% UTC) [4]: 59 % UTC

Substance: 1075207 (antisense k[5mC]*kT*kA*dT*dT*dA*dA*dA*dT*dG*dA*dG*d[5mC]*kA*k[5mC]*k[5mC]) [Compound 1075207]
- YAP1 (% UTC) [1]: 4 % UTC

Substance: 1076004 (kT*kA*kA*dT*dT*dT*dA*dA*dT*dG*dG*d[5mC]*dT*kT*kG*k[5mC]; antisense) [Compound 1076004]
- YAP1 (% UTC) [10]: 2 % UTC

Substance: 1075750 (k[5mC]*kA*kA*dT*dT*dA*dT*dG*dA*dA*dT*dG*dA*kT*kG*kG; antisense) [Compound 1075750]
- YAP1 (% UTC) [5]: 10 % UTC

Substance: 1075984 (kT*kA*kT*d[5mC]*dG*dA*dA*dA*dA*dG*d[5mC]*dA*dA*kA*k[5mC]*kT; antisense) [compound 1075984]
- YAP1 (% UTC) (Yap1 mRNA as percent of untreated control, A-431 cells, 3-10-3 cEt gapmers targeting SEQ ID NO.: 1, and 2, Table 30): 44 % UTC

Substance: 1076019 (k[5mC]*kA*k[5mC]*dT*dA*dA*dT*dA*dG*dG*dA*dT*dG*kG*kA*kT; antisense) [compound 1076019]
- YAP1 (% UTC) [11]: 12 % UTC

Substance: 1074760 (kA*k[5mC]*kA*dA*d[5mC]*d[5mC]*dA*dA*dG*dA*dA*dG*d[5mC]*kA*kG*kT; antisense) [Compound 1074760]
- YAP1 (% UTC) [8]: 11 % UTC

Substance: 1076040 (k[5mC]*kT*kT*dA*dA*dA*dG*dA*dA*dG*d[5mC]*dA*d[5mC]*kT*kA*kG; antisense) [Compound 1076040]
- YAP1 (% UTC) [8]: 105 % UTC

Substance: 1076357 (kT*k[5mC]*k[5mC]*dA*dA*dA*dA*dA*d[5mC]*dT*dT*d[5mC]*dT*kT*kA*kG; antisense) [Compound 1076357]
- YAP1 (% UTC) [9]: 22 % UTC

Substance: 1076211 (kA*kA*kT*dT*dT*dA*dT*dA*dT*dG*d[5mC]*dT*d[5mC]*k[5mC]*k[5mC]*kT; antisense) [compound 1076211]
- YAP1 (% UTC) [11]: 22 % UTC

Substance: 1074468 (k[5mC]*k[5mC]*kA*d[5mC]*d[5mC]*dG*dA*d[5mC]*d[5mC]*d[5mC]*dT*dG*d[5mC]*k[5mC]*kA*kA; antisense) [Compound 1074468]
- YAP1 (% UTC) [10]: 34 % UTC

Substance: 1075729 (kT*kA*kT*dT*dT*dA*dA*dA*dA*dA*dT*dA*dG*k[5mC]*kG*k[5mC]; antisense) [compound 1075729]
- YAP1 (% UTC) [7]: 88 % UTC

Substance: 1075891 (antisense kA*kG*kA*dT*dT*dA*dA*dA*dA*dG*dT*dA*dG*kG*k[5mC]*k[5mC]) [compound 1075891]
- YAP1 (% UTC) [11]: 89 % UTC

Substance: 1075081 (antisense kG*kA*kT*dT*dA*d[5mC]*dA*dA*dA*dG*dA*d[5mC]*dA*kG*k[5mC]*k[5mC]) [Compound 1075081]
- YAP1 (% UTC) [6]: 7 % UTC

Substance: 716541 (antisense kT*kA*kA*dA*dG*dG*d[5mC]*dA*d[5mC]*dT*dA*d[5mC]*dA*kT*kT*kT) [Compound 716541]
- YAP1 (% UTC) [3]: 92 % UTC

Substance: 716538 (antisense kT*k[5mC]*kT*dG*dA*dA*dA*d[5mC]*dT*d[5mC]*d[5mC]*dA*dA*kA*kT*k[5mC]) [Compound 716538]
- YAP1 (% UTC) [3]: 77 % UTC
